Assays:
Cinnamate-CL = conditions: cited from earlier work
Phenylacetate-CL = conditions: cited from earlier work
TycA = molecular target: T1, TycA (Brevibacillus parabrevis, UniProt P09095); assay: CoA ligase reaction kinetics, TycA; assay type: biochemical, Brevibacillus brevis
T1 construct: this wild-type tycA cDNA encoding the A-, T-, and E-domains was subcloned into a pSU18 vector; made in house; host or cells: Escherichia coli BL21(DE3)
T1 sequence (P09095 with tags, fused parts or gaps): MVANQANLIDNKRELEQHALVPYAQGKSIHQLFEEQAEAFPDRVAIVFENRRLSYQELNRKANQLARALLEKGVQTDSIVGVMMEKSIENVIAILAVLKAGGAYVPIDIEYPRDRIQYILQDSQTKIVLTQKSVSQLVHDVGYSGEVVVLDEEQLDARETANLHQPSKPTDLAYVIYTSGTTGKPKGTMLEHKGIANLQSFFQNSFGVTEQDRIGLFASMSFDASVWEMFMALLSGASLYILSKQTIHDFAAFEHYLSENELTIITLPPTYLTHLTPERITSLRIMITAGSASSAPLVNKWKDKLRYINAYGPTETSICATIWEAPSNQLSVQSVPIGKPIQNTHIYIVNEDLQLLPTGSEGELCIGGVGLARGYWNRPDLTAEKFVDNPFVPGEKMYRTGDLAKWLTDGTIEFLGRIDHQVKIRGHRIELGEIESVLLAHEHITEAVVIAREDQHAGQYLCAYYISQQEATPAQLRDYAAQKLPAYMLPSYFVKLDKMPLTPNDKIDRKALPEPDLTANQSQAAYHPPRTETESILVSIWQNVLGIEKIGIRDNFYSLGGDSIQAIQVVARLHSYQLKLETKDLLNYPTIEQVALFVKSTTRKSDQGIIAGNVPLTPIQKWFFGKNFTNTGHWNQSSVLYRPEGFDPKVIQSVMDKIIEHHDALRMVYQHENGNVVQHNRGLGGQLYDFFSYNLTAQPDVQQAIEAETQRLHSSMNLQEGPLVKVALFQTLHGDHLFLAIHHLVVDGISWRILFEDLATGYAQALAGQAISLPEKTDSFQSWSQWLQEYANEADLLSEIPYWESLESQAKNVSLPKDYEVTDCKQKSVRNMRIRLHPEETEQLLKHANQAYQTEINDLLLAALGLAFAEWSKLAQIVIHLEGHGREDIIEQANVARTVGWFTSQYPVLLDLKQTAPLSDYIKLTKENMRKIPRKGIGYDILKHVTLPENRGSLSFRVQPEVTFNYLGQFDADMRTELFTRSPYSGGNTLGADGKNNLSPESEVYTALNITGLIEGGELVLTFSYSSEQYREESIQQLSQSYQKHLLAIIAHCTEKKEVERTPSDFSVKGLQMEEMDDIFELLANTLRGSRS
Protocol: Under steady-state conditions, (S)-α-phenylalanine, (R)-β-phenylalanine, and (2R,3S)-phenylisoserine at 5, 10, 20, 40, 80, 160, 250, 500, 1000 and 2000 μM were separately incubated with TycA or TycA-S563A (20 μg) for 30 min. At the end of each reaction, and prior to mass spectrometry analysis, acetyl CoA (1 μM) was added as the internal standard to each sample to correct for variations of the analyte. The products of the enzyme-catalyzed reaction were quantified by a liquid chromatography multiple reaction monitoring (LC-ESI-MRM) mass spectrometry technique (Anderson & Hunter, Mol. Cell. Proteomics 5: 573-588 (2006)) on the Quattro-Premier Electro-Spray Mass Spectrometer coupled with Acquity® UPLC system fitted with a C18 Ascentis Express column (2.5×50 mm, 2.7 μm) at 30° C. An aliquot (5 μL) of each sample was loaded onto the column and the analytes were eluted with a solvent gradient of acetonitrile (Solvent A) in 0.05% triethylamine in distilled water (Solvent B). Elution was held at 2.5% Solvent A for 3.17 min, increased to 100% Solvent A over 5 sec with a 2-min hold, and then returned to 2.5% Solvent A over 5 sec with a 50-sec hold. The flow rate employed was 0.4 mL/min. The effluent from the chromatography column was directed to the mass spectrometer where the first quadrupole mass analyzer (in negative ion mode) was set to select for the molecular ion of a biosynthesized acyl CoA product. The selected ion was then directed to a collision gas chamber where the collision energy was optimized to maximize the abundance of a single signature fragment ion (m/z 408, characteristic of acyl CoA thioesters) resolved in the second quadrupole mass analyzer by the MRM method. The peak area under the curve of fragment ion m/z 408 for each biosynthetic phenylpropionyl CoA thioester was converted to concentration by comparing the peak area of the same ion produced by authentic CoA (at 0.05, 0.1, 0.2, 0.4, 0.8, 1.6, 3.2, 6.4, 12.5, 25, 50, 100 μM) using linear regression analysis.
The KM values of TycA and TycA-S563A for CoA were assessed by incubating each enzyme separately with (S)-α-phenylalanine (1 mM), MgCl2 (3 mM), ATP (1 mM), and CoA at 0.05, 0.1, 0.2, 0.4, 0.8, 1.6, 3.2, 6.4, 12.8 and 25.6 mM at 31° C. for 20 min. At the end of each reaction and prior to mass spectrometry analysis, acetyl CoA (1 μM) was added as the internal standard to each sample to correct for variations of the analyte. The products of the enzyme-catalyzed reaction were quantified by LC-ESI-MRM, and the monitored fragment ion (m/z 408) derived from the CoA moiety of the thioester analytes in the effluent was quantified identically to the procedure described earlier herein.

4-Chlorobenzoate-CL = conditions: cited from earlier work
bacterial CoA Ligases = conditions: literature range; cited from earlier work
Propionyl-CL = Propionyl-CL (Salmonella typhimurium, UniProt P55912); conditions: cited from earlier work
Benzoate-CL = conditions: cited from earlier work
[1] = tested on: mutation of phenylacetate CoA Ligase; conditions: mutated enzyme; reaction to make β-Phenylpropanyl CoA; reduced from low mM; cited from earlier work
[2] = tested on: CC(C)(COP(=O)(O)OP(=O)(O)OC[C@H]1O[C@@H](n2cnc3c(N)ncnc32)[C@H](O)[C@@H]1OP(=O)(O)O)[C@@H](O)C(=O)NCCC(=O)NCCS; assay: purified protein, by the assay type; conditions: other: TycA-S563A, CoA 1 mM, ATP 1 mM, MgCl2 3 mM, 31° C., CoA with (S)-α-Phe as cosubstrate, pH 8.0
Protocol: At the end of each reaction, and prior to mass spectrometry analysis, acetyl CoA (1 μM) was added as the internal standard to each sample to correct for variations of the analyte. The products of the enzyme-catalyzed reaction were quantified by a liquid chromatography multiple reaction monitoring (LC-ESI-MRM) mass spectrometry technique (Anderson & Hunter, Mol. Cell. Proteomics 5: 573-588 (2006)) on the Quattro-Premier Electro-Spray Mass Spectrometer coupled with Acquity® UPLC system fitted with a C18 Ascentis Express column (2.5×50 mm, 2.7 μm) at 30° C. An aliquot (5 μL) of each sample was loaded onto the column and the analytes were eluted with a solvent gradient of acetonitrile (Solvent A) in 0.05% triethylamine in distilled water (Solvent B). Elution was held at 2.5% Solvent A for 3.17 min, increased to 100% Solvent A over 5 sec with a 2-min hold, and then returned to 2.5% Solvent A over 5 sec with a 50-sec hold. The flow rate employed was 0.4 mL/min. The effluent from the chromatography column was directed to the mass spectrometer where the first quadrupole mass analyzer (in negative ion mode) was set to select for the molecular ion of a biosynthesized acyl CoA product. The selected ion was then directed to a collision gas chamber where the collision energy was optimized to maximize the abundance of a single signature fragment ion (m/z 408, characteristic of acyl CoA thioesters) resolved in the second quadrupole mass analyzer by the MRM method. The peak area under the curve of fragment ion m/z 408 for each biosynthetic phenylpropionyl CoA thioester was converted to concentration by comparing the peak area of the same ion produced by authentic CoA (at 0.05, 0.1, 0.2, 0.4, 0.8, 1.6, 3.2, 6.4, 12.5, 25, 50, 100 μM) using linear regression analysis. The initial velocity (vo) of (S)-α-phenylalanyl-CoA, (R)-β-phenylalanyl-CoA and (2R,3S)-phenylisoserinyl-CoA made in separate assays was plotted against substrate concentration and fit by non-linear regression to the Michaelis-Menten equation (R^2 was typically between 0.90 and 0.99) to calculate the Michaelis parameters (KM and kcat).
The KM values of TycA and TycA-S563A for CoA were assessed by incubating each enzyme separately with (S)-α-phenylalanine (1 mM), MgCl2 (3 mM), ATP (1 mM), and CoA at 0.05, 0.1, 0.2, 0.4, 0.8, 1.6, 3.2, 6.4, 12.8 and 25.6 mM at 31° C. for 20 min. At the end of each reaction and prior to mass spectrometry analysis, acetyl CoA (1 μM) was added as the internal standard to each sample to correct for variations of the analyte. The products of the enzyme-catalyzed reaction were quantified by LC-ESI-MRM, and the monitored fragment ion (m/z 408) derived from the CoA moiety of the thioester analytes in the effluent was quantified identically to the procedure described earlier herein. […]

[3] = tested on: C[C@@](N)(C(=O)O)c1ccccc1; assay: purified protein, by the assay type
N[C@H](CC(=O)O)c1ccccc1 = assay: purified protein, by the assay type
[4] = substrate: CC(=O)NCCS; assay: N-acetylcysteamine ligase reaction kinetics, TycA; assay type: biochemical, Brevibacillus brevis; conditions: other: TycA with NAC; NAC with (S)-α-Phe as cosubstrate
Protocol: The reactions were quenched by acidification to a pH of about 2 (10% formic acid in distilled water). […] The samples were analyzed on a Quattro-Premier Electro-Spray Mass Spectrometer coupled with Acquity® UPLC system fitted with a C18 Ascentis Express column (2.5×50 mm, 2.7 μm) at 30° C. An aliquot (5 μL) of each sample was loaded onto the column and the analytes were eluted with a solvent gradient of (Solvent A) in 0.05% triethylamine in distilled water (Solvent B) (held at 2.5% Solvent A for 3.17 mM, increased to 100% A over 5 sec with a 2-min hold, and then returned to 2.5% Solvent A over 5 sec with a 50-sec hold) at a flow rate of 0.4 mL/min. In brief, the effluent from the chromatography column was directed to the Quattro Premier ESI mass spectrometer, in MRM scan mode, to quantify the biosynthetic acyl SNAC products. […] A standard curve was used to convert the peak area under the curve of the monitored fragment ion to concentration for each biosynthetic phenylpropionyl SNAC.
Authentic (5)-α-phenylalanyl, (R/S)-β-phenylalanyl- and (2R,3S)-phenylisoserinyl-SNAC were used to construct the standard curves by correlating the peak area under the curve of the monitored ion to concentration of the standard (at 0.16, 0.32, 0.64, 1.3, 2.5, 5, 10, 20, 40, 80, 160 and 320 μM) using linear regression analysis. […]

[5] = other: TycA-S563A with NAC, NAC with (S)-α-Phe as cosubstrate
[6] = other: TycA-S563A, CoA 1 mM, ATP 1 mM, MgCl2 3 mM, 31° C., CoA with (S)-α-Phe as cosubstrate, pH 8.0

Chain of Propionyl-CL (P55912 whole entry): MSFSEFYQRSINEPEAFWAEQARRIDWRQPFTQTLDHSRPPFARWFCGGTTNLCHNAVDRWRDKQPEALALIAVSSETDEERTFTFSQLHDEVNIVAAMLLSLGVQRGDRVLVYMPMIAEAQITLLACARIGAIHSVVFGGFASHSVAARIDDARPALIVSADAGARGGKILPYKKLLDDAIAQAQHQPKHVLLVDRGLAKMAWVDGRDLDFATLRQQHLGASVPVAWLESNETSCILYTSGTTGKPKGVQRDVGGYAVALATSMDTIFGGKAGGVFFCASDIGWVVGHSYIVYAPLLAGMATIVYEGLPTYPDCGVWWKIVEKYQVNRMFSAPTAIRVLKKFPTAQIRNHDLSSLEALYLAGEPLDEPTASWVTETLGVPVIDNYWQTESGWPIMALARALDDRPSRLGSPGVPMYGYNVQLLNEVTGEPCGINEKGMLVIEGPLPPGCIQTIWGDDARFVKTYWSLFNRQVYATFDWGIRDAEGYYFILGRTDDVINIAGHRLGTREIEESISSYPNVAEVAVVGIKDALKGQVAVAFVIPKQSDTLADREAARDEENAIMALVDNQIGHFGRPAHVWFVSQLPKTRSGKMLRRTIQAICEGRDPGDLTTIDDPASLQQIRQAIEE

Molecule: O=C(O)/C=C/c1ccccc1 [Cinnamate]
- Km (Cinnamate-CL): 190 µM
- kcat (Cinnamate-CL): 0.475 s⁻¹

Molecule: CC(C)(COP(=O)(O)OP(=O)(O)OC[C@H]1O[C@@H](n2cnc3c(N)ncnc32)[C@H](O)[C@@H]1OP(=O)(O)O)[C@@H](O)C(=O)NCCC(=O)NCCS [CoA]
- Km (Phenylacetate-CL): 940 µM
- Km (TycA; TycA, CoA 1 mM, ATP 1 mM, MgCl2 3 mM, 31° C., CoA with (S)-α-Phe as cosubstrate): 1980 ± 175 µM
- kcat^CoA (TycA; TycA, turnover with CoA at apparent saturation, CoA with (S)-α-Phe as cosubstrate): 0.0125 ± 0.00083 s⁻¹
- higher KM of TycA compared to that of TycA-S563A (TycA; dilution series of CoA with 1 mM (S)-α-Phe): ~2.5 fold
- Km (4-Chlorobenzoate-CL): 310 µM
- kcat (4-Chlorobenzoate-CL): 9.3 s⁻¹
- Km (bacterial CoA Ligases): 100 to 940 µM
- Km (Propionyl-CL): 215 µM
- kcat (Propionyl-CL): 42 s⁻¹
- Km (Benzoate-CL): 100 µM

Molecule: O=C(O)c1ccccc1 [benzoate]
- Km (Benzoate-CL): 11 µM
- kcat (Benzoate-CL): 26,000 min^−1

Molecule: CCC(=O)O [propionate]
- Km (Propionyl-CL): 20 µM
- kcat (Propionyl-CL): 33 s⁻¹

Molecule: NC(CC(=O)O)c1ccccc1 (stereo not drawn) [β-Phe]
- Km [1]: 0.068 mM

Molecule: TycA-S563A (Brevibacillus parabrevis; S563A)
- Km [2]: 804 ± 26 µM
- kcat [2]: 0.015 ± 0.0013 s⁻¹
- Km [3, 5]: 37.8 ± 1.6 µM
- kcat [3, 5]: 0.003333 ± 3.33e-05 s⁻¹
- Km [3, 6]: 33.9 ± 4.0 µM
- Km (N[C@H](CC(=O)O)c1ccccc1; [5]): 58.9 ± 6.4 µM
- kcat (N[C@H](CC(=O)O)c1ccccc1; [5]): 0.0004 ± 1.67e-05 s⁻¹
- Km (N[C@H](CC(=O)O)c1ccccc1; [6]): 62.3 ± 1.0 µM

B1: TycA (Brevibacillus parabrevis) (protein)
chain: MVANQANLIDNKRELEQHALVPYAQGKSIHQLFEEQAEAFPDRVAIVFENRRLSYQELNRKANQLARALLEKGVQTDSIVGVMMEKSIENVIAILAVLKAGGAYVPIDIEYPRDRIQYILQDSQTKIVLTQKSVSQLVHDVGYSGEVVVLDEEQLDARETANLHQPSKPTDLAYVIYTSGTTGKPKGTMLEHKGIANLQSFFQNSFGVTEQDRIGLFASMSFDASVWEMFMALLSGASLYILSKQTIHDFAAFEHYLSENELTIITLPPTYLTHLTPERITSLRIMITAGSASSAPLVNKWKDKLRYINAYGPTETSICATIWEAPSNQLSVQSVPIGKPIQNTHIYIVNEDLQLLPTGSEGELCIGGVGLARGYWNRPDLTAEKFVDNPFVPGEKMYRTGDLAKWLTDGTIEFLGRIDHQVKIRGHRIELGEIESVLLAHEHITEAVVIAREDQHAGQYLCAYYISQQEATPAQLRDYAAQKLPAYMLPSYFVKLDKMPLTPNDKIDRKALPEPDLTANQSQAAYHPPRTETESILVSIWQNVLGIEKIGIRDNFYSLGGDSIQAIQVVARLHSYQLKLETKDLLNYPTIEQVALFVKSTTRKSDQGIIAGNVPLTPIQKWFFGKNFTNTGHWNQSSVLYRPEGFDPKVIQSVMDKIIEHHDALRMVYQHENGNVVQHNRGLGGQLYDFFSYNLTAQPDVQQAIEAETQRLHSSMNLQEGPLVKVALFQTLHGDHLFLAIHHLVVDGISWRILFEDLATGYAQALAGQAISLPEKTDSFQSWSQWLQEYANEADLLSEIPYWESLESQAKNVSLPKDYEVTDCKQKSVRNMRIRLHPEETEQLLKHANQAYQTEINDLLLAALGLAFAEWSKLAQIVIHLEGHGREDIIEQANVARTVGWFTSQYPVLLDLKQTAPLSDYIKLTKENMRKIPRKGIGYDILKHVTLPENRGSLSFRVQPEVTFNYLGQFDADMRTELFTRSPYSGGNTLGADGKNNLSPESEVYTALNITGLIEGGELVLTFSYSSEQYREESIQQLSQSYQKHLLAIIAHCTEKKEVERTPSDFSVKGLQMEEMDDIFELLANTLRGSRS
notes: this wild-type tycA cDNA encoding the A-, T-, and E-domains was subcloned into a pSU18 vector; made in house; host or cells: Escherichia coli BL21(DE3)
- Km [4]: 153 ± 22 µM
- kcat [4]: 0.0015 ± 0.000167 s⁻¹
